Data on three molecules can be found in article PMC10659578, “Mechanism of stepwise electron transfer in six-transmembrane epithelial antigen of the prostate (STEAP) 1 and 2” (eLife, 2023).

One test concerns the target T1, STEAP2 (Homo sapiens, UniProt Q8NFT2).
T1 construct: full-length (490 residues), C-terminal His6-tag cleaved by TEV protease; High Five or Sf9 insect cells; LMNG or GDN; homotrimer
T1 sequence (Q8NFT2 1-490): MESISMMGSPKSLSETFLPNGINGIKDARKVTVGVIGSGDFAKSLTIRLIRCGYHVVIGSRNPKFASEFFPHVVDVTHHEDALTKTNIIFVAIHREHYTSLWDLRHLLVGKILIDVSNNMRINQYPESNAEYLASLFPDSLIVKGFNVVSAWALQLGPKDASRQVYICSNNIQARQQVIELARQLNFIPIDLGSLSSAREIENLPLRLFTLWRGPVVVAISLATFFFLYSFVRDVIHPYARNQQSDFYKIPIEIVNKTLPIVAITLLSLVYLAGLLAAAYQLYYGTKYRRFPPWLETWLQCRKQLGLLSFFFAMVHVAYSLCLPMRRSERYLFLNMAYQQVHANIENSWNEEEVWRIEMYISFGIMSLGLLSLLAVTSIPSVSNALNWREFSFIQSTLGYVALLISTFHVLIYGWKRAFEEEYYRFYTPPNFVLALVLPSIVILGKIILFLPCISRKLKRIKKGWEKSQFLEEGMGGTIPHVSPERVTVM
The test is described as follows: cryo-EM structure, […] Å. Format: binding.

Test [1] concerns the target T2, cytochrome b5 reductase (b5R) (Mus musculus, UniProt Q9DCN2).
T2 construct: gene Cyb5r3
T2 sequence (Q9DCN2 24-301): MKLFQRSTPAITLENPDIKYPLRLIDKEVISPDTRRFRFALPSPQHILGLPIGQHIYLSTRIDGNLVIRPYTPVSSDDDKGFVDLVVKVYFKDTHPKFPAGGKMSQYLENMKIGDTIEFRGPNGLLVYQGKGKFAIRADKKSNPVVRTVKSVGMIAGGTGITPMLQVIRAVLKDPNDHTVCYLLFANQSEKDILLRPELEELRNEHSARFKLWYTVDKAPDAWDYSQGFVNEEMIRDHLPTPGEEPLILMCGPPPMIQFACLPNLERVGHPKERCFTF
In words: rapid-scan stopped-flow FAD reduction. The test is classed as biochemical. To be noted: anaerobic, 1.5 μM b5R with 1.5 μM STEAP1 and 10 μM NADH.

Turning to `Cc1cc2nc3c(=O)[nH]c(=O)nc-3n(C[C@H](O)[C@H](O)[C@H](O)COP(=O)(O)OP(=O)(O)OC[C@H]3O[C@@H](n4cnc5c(N)ncnc54)[C@H](O)[C@@H]3O)c2cc1C` [FAD], the “cryo-EM structure, 3.2 Å” value on STEAP2 (complex with NADP+ and heme, extended conformation, isoalloxazine ring in TMD, adenine stacks on Trp152 of OxRD) was “Heme, FAD, and NADP^+ are unambiguously resolved in the density map”. Turning to `NC(=O)C1=CN([C@@H]2O[C@H](COP(=O)(O)OP(=O)(O)OC[C@H]3O[C@@H](n4cnc5c(N)ncnc54)[C@H](O)[C@@H]3O)[C@@H](O)[C@H]2O)C=CC1` [NADH], the “rapid-scan stopped-flow FAD reduction” value in test [1] was “intermediate B is due to fast FAD reduction in b5R by NADH”. Take `NC(=O)c1ccc[n+]([C@@H]2O[C@H](COP(=O)(O)OP(=O)(O)OC[C@H]3O[C@@H](n4cnc5c(N)ncnc54)[C@H](OP(=O)(O)O)[C@@H]3O)[C@@H](O)[C@H]2O)c1` [NADP^+]: on STEAP2 (complex with FAD and heme, OxRD site), the “cryo-EM structure, 3.2 Å” value is “Heme, FAD, and NADP^+ are unambiguously resolved in the density map”.
